Laboratory results from ChEMBL document CHEMBL1201862, “PubChem BioAssay data set” (2004).
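All cell lines were grown in 96-well plates and treated with compound for 48 hours. Here, GI50 denotes the concentration required for 50% inhibition of growth.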 The source made the active and inactive calls. Cut-off read from the data, not from the text of the source: active = GI50 up to about 1.1 µM and inactive = higher.

Key:
Assay in all cases: NCI anticancer screen, dose series, 48 h
[1] = tested on: A549
[2] = tested on: HCC 2998
[3] = tested on: HCT-15
[4] = tested on: HL-60
[5] = tested on: HOP-62
[6] = tested on: Malme-3M
[7] = tested on: NCI-H226
[8] = tested on: NCI-H23
[9] = tested on: NCI-H522
[10] = tested on: RXF 393
[11] = tested on: SF-268
[12] = tested on: SK-MEL-28
[13] = tested on: SK-OV-3
[14] = tested on: SNB-75
[15] = tested on: U-251
[16] = tested on: UACC-62
[17] = tested on: UO-31
[18] = tested on: 786-0
[19] = tested on: M14
[20] = tested on: TK-10

| Structure (SMILES) | GI50 [1] | GI50 [2] | GI50 [3] [µM] | GI50 [4] | GI50 [5] | GI50 [6] | GI50 [7] | GI50 [8] | GI50 [9] | GI50 [10] | GI50 [11] | GI50 [12] | GI50 [13] | GI50 [14] | GI50 [15] | GI50 [16] | GI50 [17] | GI50 [18] | GI50 [19] | GI50 [20] |
| --- | --- | --- | --- | --- | --- | --- | --- | --- | --- | --- | --- | --- | --- | --- | --- | --- | --- | --- | --- | --- |
| O=C(N[C@@H](c1ccccc1)[C@@H](O)C(=O)OCc1ccc2c(c1)OCO2)c1ccccc1 | > 100 µM (inactive) | > 100 µM (inactive) | > 100 | > 100 µM (inactive) | > 100 µM (inactive) | > 100 µM (inactive) | > 84.1 µM (inactive) | > 100 µM (inactive) | > 100 µM (inactive) | 52.8 µM (inactive) | > 100 µM (inactive) | > 100 µM (inactive) | > 100 µM (inactive) | > 90.4 µM (inactive) | > 100 µM (inactive) | > 80.7 µM (inactive) | > 91.6 µM (inactive) |  |  |  |
| CCOC(=O)/C=C/c1c[nH]c(=O)[nH]c1=O | > 75 µM (inactive) | > 75 µM (inactive) | > 75 | > 75 µM (inactive) | > 49.1 µM (inactive) | > 75 µM (inactive) | > 75 µM (inactive) | > 75 µM (inactive) | > 75 µM (inactive) | > 75 µM (inactive) | > 75 µM (inactive) | > 75 µM (inactive) | > 41.5 µM (inactive) | > 72.6 µM (inactive) | > 75 µM (inactive) | > 75 µM (inactive) | > 75 µM (inactive) |  |  |  |
| CN(C)/N=C(\CCN1CCCC1)CC(c1ccccc1)c1c(O)c2ccccc2oc1=O (configuration not stated) | > 100 µM (inactive) | > 100 µM (inactive) |  | 25.2 µM (inactive) | > 100 µM (inactive) | > 100 µM (inactive) | > 100 µM (inactive) | > 100 µM (inactive) | > 100 µM (inactive) | > 100 µM (inactive) | > 100 µM (inactive) | > 100 µM (inactive) | > 100 µM (inactive) | 58.2 µM (inactive) |  | > 100 µM (inactive) |  | > 100 µM (inactive) | > 100 µM (inactive) | > 100 µM (inactive) |
| Cc1cc(O)c2c(c1)C(=O)c1cc(O)cc(O)c1C2=O [EMODIN] | 23 µM (inactive) | 31.3 µM (inactive) | 22.9 | 26.9 µM (inactive) | 14.4 µM (inactive) | 11 µM (inactive) | 20.1 µM (inactive) | 14.9 µM (inactive) | 27.4 µM (inactive) | 41 µM (inactive) | 22 µM (inactive) | 25.4 µM (inactive) | 30.7 µM (inactive) | 32.6 µM (inactive) | 24.7 µM (inactive) |  |  |  | 21.4 µM (inactive) | 39.4 µM (inactive) |
| CN(C)CCNC1=Nc2ccccc2C(=S)N2CSCC12 (configuration not stated) | > 100 µM (inactive) | > 100 µM (inactive) | > 100 |  | > 100 µM (inactive) | > 100 µM (inactive) | > 100 µM (inactive) |  | > 100 µM (inactive) | 59.3 µM (inactive) | > 100 µM (inactive) | > 100 µM (inactive) | > 100 µM (inactive) | > 100 µM (inactive) | > 100 µM (inactive) | > 100 µM (inactive) | 58.2 µM (inactive) | > 100 µM (inactive) | > 100 µM (inactive) | > 100 µM (inactive) |
| CC1C(=O)CC(c2cccs2)N(N=O)C1c1cccs1 (configuration not stated) | 58.3 µM (inactive) | 30.4 µM (inactive) | 46.1 | 26.7 µM (inactive) | 97.7 µM (inactive) | > 82 µM (inactive) | > 92 µM (inactive) | 40.6 µM (inactive) | 28.2 µM (inactive) | 24.9 µM (inactive) | 97.3 µM (inactive) | 53.2 µM (inactive) | 29.8 µM (inactive) | 33.1 µM (inactive) | 68.2 µM (inactive) | 59.7 µM (inactive) | 43.6 µM (inactive) |  |  |  |
| CC1(c2cc3c(cc2Br)OCO3)SCCCS1 | 34.5 µM (inactive) | 16.4 µM (inactive) | 38.7 | 25.1 µM (inactive) | 31.1 µM (inactive) |  | 32.4 µM (inactive) | 13.3 µM (inactive) | 1.84 µM (inactive) | 18.3 µM (inactive) | 44.6 µM (inactive) | 78 µM (inactive) | > 100 µM (inactive) | 40.6 µM (inactive) | 33 µM (inactive) | 50.6 µM (inactive) | 24.2 µM (inactive) | 44.3 µM (inactive) | 38.3 µM (inactive) | 33.4 µM (inactive) |
| COc1ccc2oc(=O)c(-c3cc4c(c(C)n3)c(=O)oc3ccc(OC)cc34)cc2c1 | > 100 µM (inactive) | > 100 µM (inactive) | > 100 | > 100 µM (inactive) | 30.4 µM (inactive) |  | > 100 µM (inactive) | > 100 µM (inactive) | > 100 µM (inactive) | > 100 µM (inactive) | 55.8 µM (inactive) | > 100 µM (inactive) | > 100 µM (inactive) | > 100 µM (inactive) | > 100 µM (inactive) | 35.8 µM (inactive) | > 100 µM (inactive) | 1.94 µM (inactive) | > 100 µM (inactive) | > 100 µM (inactive) |
| CN(CC(=O)Nc1ccccc1C(=O)O)c1ccccc1 | > 100 µM (inactive) | > 100 µM (inactive) | 67.1 | > 100 µM (inactive) | > 100 µM (inactive) | > 100 µM (inactive) | > 100 µM (inactive) | > 100 µM (inactive) | > 100 µM (inactive) | > 100 µM (inactive) | > 100 µM (inactive) | > 100 µM (inactive) |  | > 100 µM (inactive) | > 100 µM (inactive) |  | > 100 µM (inactive) | > 100 µM (inactive) | > 100 µM (inactive) | > 100 µM (inactive) |
| CCOC(=O)C1c2[nH]c3ccccc3c2CCN1C(=O)c1ccc(OC)o1 (configuration not stated) |  | > 10 µM (inactive) | > 10 | > 10 µM (inactive) | > 10 µM (inactive) | 1.29 µM (inactive) | > 10 µM (inactive) | > 10 µM (inactive) | > 10 µM (inactive) | > 10 µM (inactive) | > 10 µM (inactive) | > 10 µM (inactive) | > 10 µM (inactive) | 5.78 µM (inactive) | > 10 µM (inactive) |  | > 10 µM (inactive) | > 10 µM (inactive) | > 10 µM (inactive) | > 10 µM (inactive) |
| O=C1C(Cl)=C(N2C(=O)CCCC2=O)C(=O)c2ccccc21 | 22.1 µM (inactive) | 16.6 µM (inactive) | 11.6 | 1.7 µM (inactive) | > 100 µM (inactive) |  | 59.4 µM (inactive) | 17.2 µM (inactive) | 1.84 µM (inactive) | 15.7 µM (inactive) | 23.9 µM (inactive) | 13.9 µM (inactive) | > 100 µM (inactive) | 16.4 µM (inactive) | 26 µM (inactive) | 19.3 µM (inactive) | 11 µM (inactive) | 16.9 µM (inactive) | 19.5 µM (inactive) | 17.5 µM (inactive) |
| O=C(NNc1ccc([N+](=O)[O-])cc1[N+](=O)[O-])/C(O)=C\C(=O)c1ccccc1 | 17.6 µM (inactive) | 16.4 µM (inactive) | 16.5 |  | 16.3 µM (inactive) | 30 µM (inactive) | 21.2 µM (inactive) | 20 µM (inactive) | 25.6 µM (inactive) | 16.3 µM (inactive) | 17.7 µM (inactive) | 23.5 µM (inactive) | 18.6 µM (inactive) | 12.8 µM (inactive) | 14.9 µM (inactive) | 15.5 µM (inactive) | 14.3 µM (inactive) | 13.2 µM (inactive) | 14.3 µM (inactive) | 22.4 µM (inactive) |
| COC(=O)/C(C#N)=C1\NN=NN1CCCc1ccccc1 | > 100 µM (inactive) | > 100 µM (inactive) | > 100 |  |  | > 100 µM (inactive) | > 100 µM (inactive) | > 100 µM (inactive) | 13.5 µM (inactive) | > 100 µM (inactive) |  | > 100 µM (inactive) | > 100 µM (inactive) | > 100 µM (inactive) | > 100 µM (inactive) | > 100 µM (inactive) | 76.4 µM (inactive) | > 100 µM (inactive) | > 100 µM (inactive) | > 100 µM (inactive) |
| CC(=O)C(=Cc1cn(C)c(=O)n(C)c1=O)C(C)=O | 157 µM (inactive) | 122 µM (inactive) | 94 | 84.3 µM (inactive) | 137 µM (inactive) | 83 µM (inactive) | 116 µM (inactive) | 69.5 µM (inactive) | 16.8 µM (inactive) | 60.1 µM (inactive) | 148 µM (inactive) | 100 µM (inactive) | 99.8 µM (inactive) | 65 µM (inactive) | > 96.8 µM (inactive) | 75.9 µM (inactive) | 83.8 µM (inactive) |  |  |  |
| O=CNNC(=O)CSc1nc2ccc(I)cc2c(=O)n1Cc1ccccc1 | 37.4 µM (inactive) | 26.8 µM (inactive) | 40.7 | 47.5 µM (inactive) | 37.1 µM (inactive) |  | 49.3 µM (inactive) | 36.7 µM (inactive) | 20.9 µM (inactive) | 29.1 µM (inactive) | 35.4 µM (inactive) | 79.8 µM (inactive) | 49.7 µM (inactive) | 45 µM (inactive) | 36.6 µM (inactive) | 20.3 µM (inactive) | 1.72 µM (inactive) | 31.3 µM (inactive) | 31.6 µM (inactive) | 38.6 µM (inactive) |
| O=C(C[n+]1ccccc1)N/N=C(\C(=O)NC1=C(Cl)C(=O)c2ccccc2C1=O)c1c(O)c2ccc(O)cc2oc1=O | 3.03 µM (inactive) | 3.4 µM (inactive) | 2.42 | 3.43 µM (inactive) | 10.4 µM (inactive) |  | 5.56 µM (inactive) | 2.52 µM (inactive) | 2.07 µM (inactive) | 9.35 µM (inactive) | 9.77 µM (inactive) | 2.94 µM (inactive) | 14.1 µM (inactive) | 6.5 µM (inactive) | 5.07 µM (inactive) | 1.84 µM (inactive) | 12.2 µM (inactive) | 4.93 µM (inactive) | 3.5 µM (inactive) | 23.7 µM (inactive) |
